What follows are cell lines tested with Cc1cnc(CNC(=O)c2c(=O)c3ccc(N4CCCN(C)CC4)nc3n3c2sc2ccccc23)cn1 [CX-5461] + COc1cc2c(Oc3ccc(NC(=O)C4(C(=O)Nc5ccc(F)cc5)CC4)cc3F)ccnc2cc1OCCCN1CCOCC1 [Foretinib] (partner 0.25 µM) (assay: relative viability (nuclei count vs DMSO), 5 days (fraction); higher = more cells survive). Settings: first compound 0.01 µM.
Summary of the method: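 Cells from lung cancer lines were seeded into 1536-well plates and, one day later, dosed by pin tool. Treatments were either a single drug or a fixed dose of an anchor drug with five library-drug doses (not always all listed) in √10 steps. After 5 days, nuclei were stained in a one-step fixation (final 0.05% Triton X-100, 1% formaldehyde, 1 ug/ml Hoechst) and counted on 4× images, and relative viability is the treated-to-vehicle nuclei ratio, as the median of duplicate plates.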

Cell Line | relative viability
NCI-H1623 | 0.971
NCI-H727 | 0.96
NCI-H1650 | 1.35
EBC-1 | 0.108
NCI-H1703 | 0.359
NCI-H1993 | 0.738
SK-LU-1 | 0.818
NCI-H838 | 1.11
LCLC-103H | 0.81
NCI-H520 | 0.748
NCI-H2126 | 1.28
EMC-BAC-2 | 0.988
NCI-H2085 | 0.961
Calu-6 | 0.837
HCC-366 | 1.03
NCI-H1666 | 1.02
NCI-H596 | 0.896
NCI-H1395 | 0.959
NCI-H2087 | 1.17

Cell Line | relative viability
NCI-H2342 | 0.98
LK-2 | 1.17
H3255 | 0.907
COR-L23 | 0.997
COR-L 105 | 1.13
IA-LM | 1.21
LOU-NH91 | 1.02
ChaGo-K-1 | 0.927
A549 | 1.01
SW 900 | 0.967
NCI-H2009 | 1.24
NCI-H661 | 0.928
SW 1573 | 0.887
NCI-H1299 | 1.06
NCI-H2228 | 0.691
NCI-H2023 | 0.954
NCI-H1563 | 0.88
SK-MES-1 | 1.05

Same assay, conditions: first compound 0.03162 µM

Cell Line | relative viability
NCI-H1623 | 0.871
NCI-H727 | 1.14
NCI-H1650 | 1.45
EBC-1 | 0.085
NCI-H1703 | 0.311
NCI-H1993 | 0.779
SK-LU-1 | 0.857
NCI-H838 | 1.1
LCLC-103H | 0.867
NCI-H520 | 0.677
NCI-H2126 | 1.3
EMC-BAC-2 | 1.13
NCI-H2085 | 1.07
Calu-6 | 0.925
HCC-366 | 0.913
NCI-H1666 | 0.969
NCI-H596 | 1.18
NCI-H1395 | 0.916
NCI-H2087 | 1.43

Cell Line | relative viability
NCI-H2342 | 1.1
LK-2 | 0.942
H3255 | 0.854
COR-L23 | 1.09
COR-L 105 | 1.05
IA-LM | 1.12
LOU-NH91 | 1.02
ChaGo-K-1 | 0.981
A549 | 0.883
SW 900 | 0.968
NCI-H2009 | 1.17
NCI-H661 | 0.98
SW 1573 | 0.83
NCI-H1299 | 1.06
NCI-H2228 | 1.03
NCI-H2023 | 0.71
NCI-H1563 | 0.826
SK-MES-1 | 1.05

Same assay, conditions: first compound 0.1 µM

Cell Line | relative viability
NCI-H1623 | 0.809
NCI-H727 | 0.949
NCI-H1650 | 0.958
EBC-1 | 0.11
NCI-H1703 | 0.357
NCI-H1993 | 0.813
SK-LU-1 | 0.736
NCI-H838 | 1.16
LCLC-103H | 0.681
NCI-H520 | 0.721
NCI-H2126 | 1.16
EMC-BAC-2 | 1.06
NCI-H2085 | 0.92
Calu-6 | 0.807
HCC-366 | 0.924
NCI-H1666 | 0.962
NCI-H596 | 0.888
NCI-H1395 | 0.884
NCI-H2087 | 1.01

Cell Line | relative viability
NCI-H2342 | 1.07
LK-2 | 1.26
H3255 | 0.818
COR-L23 | 0.881
COR-L 105 | 1.11
IA-LM | 1.14
LOU-NH91 | 0.935
ChaGo-K-1 | 0.917
A549 | 0.948
SW 900 | 1.07
NCI-H2009 | 1.07
NCI-H661 | 0.985
SW 1573 | 0.98
NCI-H1299 | 1.09
NCI-H2228 | 0.763
NCI-H2023 | 0.733
NCI-H1563 | 0.806
SK-MES-1 | 1.04

Same assay, conditions: first compound 0.3162 µM

Cell Line | relative viability
NCI-H1623 | 0.934
NCI-H727 | 0.722
NCI-H1650 | 0.928
EBC-1 | 0.112
NCI-H1703 | 0.363
NCI-H1993 | 0.746
LCLC-103H | 1.02
NCI-H520 | 0.503
NCI-H2126 | 1.39
EMC-BAC-2 | 0.928
NCI-H2085 | 0.864
Calu-6 | 0.844
HCC-366 | 0.756
NCI-H1666 | 0.916
NCI-H596 | 1.03
NCI-H1395 | 0.988
NCI-H2087 | 1.14

Cell Line | relative viability
NCI-H2342 | 1.03
H3255 | 0.558
COR-L23 | 0.774
COR-L 105 | 0.813
IA-LM | 1.07
ChaGo-K-1 | 0.597
A549 | 0.987
SW 900 | 1.08
NCI-H2009 | 1.18
NCI-H661 | 0.497
SW 1573 | 0.397
NCI-H1299 | 1.06
NCI-H2228 | 0.747
NCI-H2023 | 0.552
NCI-H1563 | 0.826
SK-MES-1 | 1.08

Same assay, conditions: first compound 1 µM

Cell Line | relative viability
NCI-H1623 | 0.723
NCI-H727 | 0.837
NCI-H1650 | 0.385
EBC-1 | 0.0969
NCI-H1703 | 0.28
NCI-H1993 | 0.788
SK-LU-1 | 0.326
NCI-H838 | 0.931
LCLC-103H | 0.798
NCI-H520 | 0.725

Reference: the supplement of paper PMC10307832
